Like-named read-outs stand apart in the source and are kept apart here.
Assays:
P. A. PAO1 NB52019 = test: MIC, broth microdilution (CLSI); assay type: cell-based, Pseudomonas aeruginosa; details: for MIC: Pseudomonas aeruginosa, read-out: P. A. PAO1 NB52019 MIC
Method: (§1) Bacterial isolates were cultivated from −70° C. frozen stocks by two consecutive overnight passages at 35° C. in ambient air on 5% blood agar (Remel, Lenexa, Kans.). Quality control strain, P. aeruginosa ATCC 27853, A. baumannii ATCC19606 and E. coli ATCC 25922 are from the American Type Culture Collection (ATCC; Rockville, Md.) and PAO1 was received from Dr. K. Poole.
(§2) Minimal Inhibitory Concentrations (MICs) were determined by the broth microdilution method in accordance with Clinical and Laboratories Institute (CLSI) guidelines (CLSI M100-S25, Performance Standards for Antimicrobial Susceptibility Testing; Twenty-fifth Informational Supplement). In brief, fresh bacterial overnight cultures were resuspended in sterile saline, adjusted to a 0.5 McFarland turbidity standard and then diluted 2000-fold in cation adjusted Mueller-Hinton Broth II (MHB; Remel BBL) to yield a final inoculum of approximately 5×10^5 colony-forming units (CFU)/mL. Two-fold serial dilutions of compounds were prepared in 100% dimethyl sulfoxide (DMSO) at 100-fold the highest final assay concentration; the resulting dilution series of compounds were diluted 1:10 with sterile water. Ten μl of the drug dilution series in 10% DMSO was transferred to microtiter wells and 90 μl of bacterial suspension was inoculated into the wells. For testing the ability of compounds to potentiate the activity of known antibiotics, the assay was modified as follows; known antibiotics were added to the bacterial inoculum at 1.1-fold the final assay concentration indicated in Table A. All inoculated microdilution trays were incubated in ambient air at 35° C. for 20 hours. Following incubation, assay plates were read in a microtiter plate reader at 600 nm and visually inspected to confirm the MIC endpoint well with the OD value. The lowest concentration of the compound that prevented visible growth was recorded as the MIC. Performance of the assay was monitored by testing ciprofloxacin against the laboratory quality control strain in accordance with guidelines of the CLSI.

E. C. ATCC 25922 = test: MIC, broth microdilution (CLSI); assay type: cell-based, Escherichia coli; details: for MIC: Escherichia coli, ATCC25922, 20 h, read-out: E. C. ATCC 25922 MIC
Method: as §1, §2

A. B. ATCC 19606 [1] = test: MIC, broth microdilution (CLSI); assay type: cell-based, Acinetobacter baumannii; details: for MIC: Acinetobacter baumannii, read-out: A. B. ATCC 19606 MIC
Method: as §1, §2

A. B. ATCC 19606 [2] = test: MIC in the presence of sub-inhibitory rifampicin (potentiation/synergy); assay type: cell-based, Acinetobacter baumannii; details: +2 μg/ml rifampicin (RIF); broth microdilution, 35° C., 20 hours
Method: as §1, §2

E. C. ATCC 29522 = test: as above; assay type: cell-based, Escherichia coli; details: +2 μg/ml rifampicin (RIF); broth microdilution, 35° C., 20 hours
Method: as §1, §2

P. aeruginosa LpxC = molecular target: T1, P. aeruginosa LpxC (Pseudomonas aeruginosa, UniProt P47205); test: P. aeruginosa LpxC Inhibition Assay (LC-MS/MS); assay type: biochemical; details: 1 nM P. aeruginosa LpxC, 30 min pre-incubation, 2 μM UDP-3-O-(R-3-hydroxydecanoyl)-GlcNAc, pH 7.5
T1 construct: made in house
T1 sequence (P47205 1-303): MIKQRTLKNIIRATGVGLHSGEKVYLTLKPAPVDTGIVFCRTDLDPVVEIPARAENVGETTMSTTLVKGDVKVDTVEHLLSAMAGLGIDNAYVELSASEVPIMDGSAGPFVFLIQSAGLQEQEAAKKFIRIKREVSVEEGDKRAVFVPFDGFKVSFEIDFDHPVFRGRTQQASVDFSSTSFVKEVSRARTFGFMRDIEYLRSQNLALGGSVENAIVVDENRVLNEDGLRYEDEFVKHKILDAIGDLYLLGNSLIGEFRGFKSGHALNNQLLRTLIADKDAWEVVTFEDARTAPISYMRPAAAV
Excerpt: P. aeruginosa LpxC Inhibition Assay
The P. aeruginosa LpxC protein is produced according to the general method of Hyland et al (Journal of Bacteriology 1997 179, 2029-2037: Cloning, expression and purification of UDP-3-O-acyl-GlcNAc deacetylase from Pseudomonas aeruginosa: a metalloamidase of the lipid A biosynthesis pathway). The LC-MS/MS method for quantitation of LpxC product was developed using an Agilent 1200 Capillary HPLC system coupled to an Applied Biosystems MDS Sciex 4000QTRAP mass spectrometer. Both instruments are controlled using the Applied Biosystems MDS Sciex Analyst software. LpxC reaction product (UDP-3-O—(R-3-hydroxyacyl)-glucosamine) was produced by hydrolysis of LpxC substrate catalyzed by P.a. LpxC and purified using reversed phase chromatography on a Phenomenex Luna C18(2) 4.6×50 mm column. An LpxC product calibration curve was generated to evaluate the sensitivity and dynamic range of the LC-MS/MS method. Briefly, compounds are pre-incubated with 1 nM P. aeruginosa LpxC for 30 min. at room temperature. Reactions are initiated by the addition of 2 μM UDP-3-O—(R-3-hydroxydecanoyl)-GlcNAc. Reactions are conducted in a 384-well plate with a total volume of 50 μL in each well containing 50 mM Sodium phosphate pH 7.5, 0.005% Trition X-100 for 20 min at room temperature. After quenching with 1.8% HOAc (5 μL of a 20% HOAc added to each well), reaction mixtures are analyzed using the LC-MS/MS method and peak areas are transformed into product concentration using a LpxC product calibration curve. Total activity (0% inhibition control) is obtained from reactions with no inhibitors and 100% inhibition control is the background using quenched samples before reaction starts. For IC50 determinations, peak areas are converted to percent inhibition in Microsoft Excel. Percent inhibition values are plotted vs. log compound concentration using XLfit. Data is fit to the four-parameter logistic equation using the non-linear regression algorithm in XLfit to return the IC50 and hill slope values.

[3] = PAO1, broth microdilution, 35° C., 20 hours
[4] = broth microdilution, 35° C., 20 hours
[5] = ATCC19606, broth microdilution, 35° C., 20 hours

Row | SMILES | MIC (P. A. PAO1 NB52019; [3]) [µg/mL] | MIC (E. C. ATCC 25922; [4]) [µg/mL] | MIC (A. B. ATCC 19606 [1]; [5]) [µg/mL] | A. B. ATCC 19606 (+2 μg/ml RIF) MIC (A. B. ATCC 19606 [2]) [µg/mL] | E. C. ATCC 29522 (+2 μg/ml RIF) MIC (E. C. ATCC 29522) [µg/mL] | P. A. PAO1 NB52019 MIC (P. A. PAO1 NB52019; [4]) [µg/mL] | E. C. ATCC 25922 MIC (E. C. ATCC 25922; [4]) [µg/mL] | A. B. ATCC 19606 MIC (A. B. ATCC 19606 [1]; [4]) [µg/mL] | IC50 (P. aeruginosa LpxC) [nM] | MIC (P. A. PAO1 NB52019; PAO1, 20 h) [µg/mL] | MIC (E. C. ATCC 25922) [µg/mL] | MIC (A. B. ATCC 19606 [1]; ATCC19606, 20 h) [µg/mL]
1 | COCC1CC(C#Cc2cc(CC[C@](C)(C(=O)NO)S(C)(=O)=O)no2)C1 (single isomer, unassigned) [Compound 1.15a] | 2 | 8 | > 64 | 0.25 | 0.25 |  |  |  |  |  |  | 
2 | COCC1CC(C#Cc2cc(CC[C@](C)(C(=O)NO)S(C)(=O)=O)no2)C1 (single isomer, unassigned) [Compound 1.15b] |  |  |  | 0.5 | 0.25 | 2 | 4 | >64 |  |  |  | 
3 | C[C@@](CCc1cc(C#CC2CC2)on1)(C(=O)NO)S(C)(=O)=O [Compound 1.1, (R)-4-(5-(cyclopropylethynyl)isoxazol-3-yl)-N-hydroxy-2-methyl-2-(methylsulfonyl)butanamide] | 0.25 | 2 | > 64 | 0.125 | ≤0.06 |  |  |  | 3 |  |  | 
4 | C[C@@](CCc1cc(C#CC2CCC2)on1)(C(=O)NO)S(C)(=O)=O [Compound 1.2, (R)-4-(5-(cyclobutylethynyl)isoxazol-3-yl)-N-hydroxy-2-methyl-2-(methylsulfonyl)butanamide] | 0.125 | 2 | > 64 | ≤0.06 | ≤0.06 |  |  |  | < 1 |  |  | 
5 | CC(C)(C)C#Cc1cc(CC[C@](C)(C(=O)NO)S(C)(=O)=O)no1 [Compound 1.3, (R)-4-(5-(3,3-dimethylbut-1-yn-1-yl)isoxazol-3-yl)-N-hydroxy-2-methyl-2-(methylsulfonyl)butanamide] | 0.25 | 8 | > 64 | 0.25 | 2 |  |  |  | < 1 |  |  | 
6 | CC#Cc1cc(CC[C@](C)(C(=O)NO)S(C)(=O)=O)no1 [Compound 1.4, (R)—N-hydroxy-2-methyl-2-(methylsulfonyl)-4-(5-(prop-1-yn-1-yl)isoxazol-3-yl)butanamide] | 0.25 | 4 | > 64 | 2 | ≤0.06 |  |  |  | 2 |  |  | 
7 | CCC#Cc1cc(CC[C@](C)(C(=O)NO)S(C)(=O)=O)no1 [Compound 1.5, (R)-4-(5-(but-1-yn-1-yl)isoxazol-3-yl)-N-hydroxy-2-methyl-2-(methylsulfonyl)butanamide] | 0.25 | 4 | > 64 | ≤0.06 | ≤0.06 |  |  |  | 1 |  |  | 
8 | CC(C)C#Cc1cc(CC[C@](C)(C(=O)NO)S(C)(=O)=O)no1 [Compound 1.6, (R)—N-hydroxy-2-methyl-4-(5-(3-methylbut-1-yn-1-yl)isoxazol-3-yl)-2-(methylsulfonyl)butanamide] | 0.5 | 4 | > 64 | 0.125 | 0.125 |  |  |  | < 1 |  |  | 
9 | C[C@@](CCc1cc(C#CC2CC(F)C2)on1)(C(=O)NO)S(C)(=O)=O (stereo partly drawn) [Compound 1.13, (R)-4-(5-((3-fluorocyclobutyl)ethynyl)isoxazol-3-yl)-N-hydroxy-2-methyl-2-(methylsulfonyl)butanamide] | 0.5 | 16 | > 64 | ≤0.06 | 0.25 |  |  |  |  |  |  | 
10 | C[C@@](CCc1cc(/C=C/C2CC2)on1)(C(=O)NO)S(C)(=O)=O [Compound 4.2, (R,E)-4-(5-(2-cyclopropylvinyl)isoxazol-3-yl)-N-hydroxy-2-methyl-2-(methylsulfonyl)butanamide] | 0.25 | 8 | > 64 | 0.5 | 0.125 |  |  |  |  |  |  | 
11 | C/C=C(/C)c1cc(CC[C@](C)(C(=O)NO)S(C)(=O)=O)no1 [Compound 4.3-2, (R,Z)-4-(5-(but-2-en-2-yl)isoxazol-3-yl)-N-hydroxy-2-methyl-2-(methylsulfonyl)butanamide] |  |  |  | 8 | 0.5 |  |  |  |  | 2 | 16 | > 64
12 | C[C@@](CCc1cc(/C(F)=C\C2CC2)on1)(C(=O)NO)S(C)(=O)=O [Compound 4.5-2, (R,E)-4-(5-(2-cyclopropyl-1-fluorovinyl)isoxazol-3-yl)-N-hydroxy-2-methyl-2-(methylsulfonyl)butanamide] | 8 | 64 | > 64 | 16 | 2 |  |  |  |  |  |  | 

From patent publication US10029994B2, “Isoxazole hydroxamic acid compounds as LpxC inhibitors” (priority 2014, dated 2018)
